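Protocol summary: plate cells (96-well), add compound at 5 concentrations, incubate 48 h, interpolate endpoints linearly. The concentration for 50% growth inhibition is given as GI50.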 Active and inactive are the calls of the source. No stated cut-off is given here; in the data, active = GI50 up to about 1.1 µM and inactive = higher.
How the values were obtained:
Test in all cases: NCI-60 cell line screen, 48 h
HOP-92 = test system: HOP-92
DMS-273 = test system: DMS-273
OVCAR-5 = test system: OVCAR-5
DLD-1 = test system: DLD-1
786-0 = test system: 786-0
RXF 631 = test system: RXF 631
SF-268 = test system: SF-268
NCI-H460 = test system: NCI-H460
Malme-3M = test system: Malme-3M
TK-10 = test system: TK-10
IGROV-1 = test system: IGROV-1
SK-OV-3 = test system: SK-OV-3
CCRF-CEM = test system: CCRF-CEM
SW-620 = test system: SW-620
LXFL 529 = test system: LXFL 529
SK-MEL-2 = test system: SK-MEL-2
UACC-257 = test system: UACC-257
NCI-H23 = test system: NCI-H23
HCT-116 = test system: HCT-116
MOLT-4 = test system: MOLT-4
KM-20L2 = test system: KM-20L2
OVCAR-8 = test system: OVCAR-8
A498 = test system: A498
HCT-15 = test system: HCT-15
COLO 205 = test system: COLO 205
SN12C = test system: SN12C
OVCAR-4 = test system: OVCAR-4
SNB-19 = test system: SNB-19
HL-60 = test system: HL-60
HOP-18 = test system: HOP-18
SK-MEL-5 = test system: SK-MEL-5
LOX IMVI = test system: LOX IMVI
EKVX = test system: EKVX
NCI-H226 = test system: NCI-H226
UACC-62 = test system: UACC-62
UO-31 = test system: UO-31
ACHN = test system: ACHN
SF-539 = test system: SF-539
M19-MEL = test system: M19-MEL
RXF 393 = test system: RXF 393
NCI-H522 = test system: NCI-H522
DMS-114 = test system: DMS-114
A549 = test system: A549
SF-295 = test system: SF-295
OVCAR-3 = test system: OVCAR-3
SNB-75 = test system: SNB-75
K562 = test system: K562
M14 = test system: M14
HOP-62 = test system: HOP-62
SK-MEL-28 = test system: SK-MEL-28
HT-29 = test system: HT-29
HCC 2998 = test system: HCC 2998
KM12 = test system: KM12
SNB-78 = test system: SNB-78
CAKI-1 = test system: CAKI-1
U-251 = test system: U-251
RPMI-8226 = test system: RPMI-8226
XF498 = test system: XF498

SMILES: Cc1nc2c(N)ncnc2o1
- GI50 (HOP-92): > 100 µM (inactive)
- GI50 (DMS-273): > 100 µM (inactive)
- GI50 (OVCAR-5): > 100 µM (inactive)
- GI50 (DLD-1): > 100 µM (inactive)
- GI50 (786-0): > 100 µM (inactive)
- GI50 (RXF 631): > 100 µM (inactive)
- GI50 (SF-268): > 100 µM (inactive)
- GI50 (NCI-H460): > 100 µM (inactive)
- GI50 (Malme-3M): > 100 µM (inactive)
- GI50 (TK-10): > 100 µM (inactive)
- GI50 (IGROV-1): > 100 µM (inactive)
- GI50 (SK-OV-3): > 100 µM (inactive)
- GI50 (CCRF-CEM): > 100 µM (inactive)
- GI50 (SW-620): > 100 µM (inactive)
- GI50 (LXFL 529): > 100 µM (inactive)
- GI50 (SK-MEL-2): > 100 µM (inactive)
- GI50 (UACC-257): > 100 µM (inactive)
- GI50 (NCI-H23): > 100 µM (inactive)
- GI50 (HCT-116): > 100 µM (inactive)
- GI50 (MOLT-4): > 100 µM (inactive)
- GI50 (KM-20L2): > 100 µM (inactive)
- GI50 (OVCAR-8): > 100 µM (inactive)
- GI50 (A498): > 100 µM (inactive)
- GI50 (HCT-15): > 100 µM
- GI50 (COLO 205): > 100 µM (inactive)
- GI50 (SN12C): > 100 µM (inactive)
- GI50 (OVCAR-4): > 100 µM (inactive)
- GI50 (SNB-19): > 100 µM (inactive)
- GI50 (HL-60): > 100 µM (inactive)
- GI50 (HOP-18): > 100 µM (inactive)
- GI50 (SK-MEL-5): > 100 µM (inactive)
- GI50 (LOX IMVI): > 100 µM (inactive)
- GI50 (EKVX): > 100 µM (inactive)
- GI50 (NCI-H226): > 100 µM (inactive)
- GI50 (UACC-62): > 100 µM (inactive)
- GI50 (UO-31): > 100 µM (inactive)
- GI50 (ACHN): > 100 µM (inactive)
- GI50 (SF-539): > 100 µM (inactive)
- GI50 (M19-MEL): > 100 µM (inactive)
- GI50 (RXF 393): > 100 µM (inactive)
- GI50 (NCI-H522): > 100 µM (inactive)
- GI50 (DMS-114): > 100 µM (inactive)
- GI50 (A549): > 100 µM (inactive)
- GI50 (SF-295): > 100 µM (inactive)
- GI50 (OVCAR-3): > 100 µM (inactive)
- GI50 (SNB-75): > 100 µM (inactive)
- GI50 (K562): > 100 µM (inactive)
- GI50 (M14): > 100 µM (inactive)
- GI50 (HOP-62): > 100 µM (inactive)
- GI50 (SK-MEL-28): > 100 µM (inactive)
- GI50 (HT-29): > 100 µM (inactive)
- GI50 (HCC 2998): > 100 µM (inactive)
- GI50 (KM12): > 100 µM (inactive)
- GI50 (SNB-78): > 100 µM (inactive)
- GI50 (CAKI-1): > 100 µM (inactive)
- GI50 (U-251): > 100 µM (inactive)

SMILES: O=c1c2cc(Br)cc(Br)c2[nH]c(=S)n1-c1ccccc1
- GI50 (HOP-92): 28.9 µM (inactive)
- GI50 (DMS-273): > 100 µM (inactive)
- GI50 (OVCAR-5): > 100 µM (inactive)
- GI50 (DLD-1): > 100 µM (inactive)
- GI50 (786-0): 99.1 µM (inactive)
- GI50 (RXF 631): > 100 µM (inactive)
- GI50 (SF-268): 52.4 µM (inactive)
- GI50 (NCI-H460): > 100 µM (inactive)
- GI50 (Malme-3M): 82.4 µM (inactive)
- GI50 (TK-10): 78.3 µM (inactive)
- GI50 (IGROV-1): > 100 µM (inactive)
- GI50 (SK-OV-3): > 100 µM (inactive)
- GI50 (CCRF-CEM): 42.2 µM (inactive)
- GI50 (SW-620): 71.4 µM (inactive)
- GI50 (SK-MEL-2): > 100 µM (inactive)
- GI50 (UACC-257): > 100 µM (inactive)
- GI50 (RPMI-8226): 28.9 µM (inactive)
- GI50 (NCI-H23): 28.4 µM (inactive)
- GI50 (HCT-116): 48.8 µM (inactive)
- GI50 (KM-20L2): > 100 µM (inactive)
- GI50 (OVCAR-8): 63 µM (inactive)
- GI50 (A498): > 100 µM (inactive)
- GI50 (HCT-15): 90.2 µM
- GI50 (COLO 205): > 100 µM (inactive)
- GI50 (SN12C): 78.5 µM (inactive)
- GI50 (XF498): 21.4 µM (inactive)
- GI50 (OVCAR-4): 86.3 µM (inactive)
- GI50 (SNB-19): 60.8 µM (inactive)
- GI50 (HOP-18): 35.3 µM (inactive)
- GI50 (SK-MEL-5): 54.8 µM (inactive)
- GI50 (LOX IMVI): 75.2 µM (inactive)
- GI50 (EKVX): 58.1 µM (inactive)
- GI50 (NCI-H226): 30.2 µM (inactive)
- GI50 (UACC-62): 91.2 µM (inactive)
- GI50 (UO-31): 40.5 µM (inactive)
- GI50 (ACHN): > 100 µM (inactive)
- GI50 (SF-539): 83 µM (inactive)
- GI50 (M19-MEL): > 100 µM (inactive)
- GI50 (DMS-114): 56.2 µM (inactive)
- GI50 (A549): 63.1 µM (inactive)
- GI50 (SF-295): > 100 µM (inactive)
- GI50 (OVCAR-3): 60.1 µM (inactive)
- GI50 (SNB-75): 32.1 µM (inactive)
- GI50 (K562): 32.4 µM (inactive)
- GI50 (M14): > 100 µM (inactive)
- GI50 (HOP-62): 88.5 µM (inactive)
- GI50 (SK-MEL-28): 50.7 µM (inactive)
- GI50 (HT-29): > 100 µM (inactive)
- GI50 (HCC 2998): 92.5 µM (inactive)
- GI50 (KM12): > 100 µM (inactive)
- GI50 (SNB-78): > 100 µM (inactive)
- GI50 (CAKI-1): 54.5 µM (inactive)
- GI50 (U-251): 85.5 µM (inactive)

— ChEMBL document CHEMBL1201862, “PubChem BioAssay data set” (2004)
